Here are results for 1 molecule from ChEMBL document CHEMBL2074324, “Multidrug resistance P-glycoprotein hampers the access of cortisol but not of corticosterone to mouse and human brain” (Endocrinology, 2001).

This series has as its target ATP-dependent translocase ABCB1 (Mus musculus, UniProt P21447). Kind of series: TP_TRANSPORTER: increase in brain concentration in mdr1a(-/-) mouse. As to conditions: in vivo. Type of series: functional, organism-based.

ATP-dependent translocase ABCB1, sequence (P21447 whole entry): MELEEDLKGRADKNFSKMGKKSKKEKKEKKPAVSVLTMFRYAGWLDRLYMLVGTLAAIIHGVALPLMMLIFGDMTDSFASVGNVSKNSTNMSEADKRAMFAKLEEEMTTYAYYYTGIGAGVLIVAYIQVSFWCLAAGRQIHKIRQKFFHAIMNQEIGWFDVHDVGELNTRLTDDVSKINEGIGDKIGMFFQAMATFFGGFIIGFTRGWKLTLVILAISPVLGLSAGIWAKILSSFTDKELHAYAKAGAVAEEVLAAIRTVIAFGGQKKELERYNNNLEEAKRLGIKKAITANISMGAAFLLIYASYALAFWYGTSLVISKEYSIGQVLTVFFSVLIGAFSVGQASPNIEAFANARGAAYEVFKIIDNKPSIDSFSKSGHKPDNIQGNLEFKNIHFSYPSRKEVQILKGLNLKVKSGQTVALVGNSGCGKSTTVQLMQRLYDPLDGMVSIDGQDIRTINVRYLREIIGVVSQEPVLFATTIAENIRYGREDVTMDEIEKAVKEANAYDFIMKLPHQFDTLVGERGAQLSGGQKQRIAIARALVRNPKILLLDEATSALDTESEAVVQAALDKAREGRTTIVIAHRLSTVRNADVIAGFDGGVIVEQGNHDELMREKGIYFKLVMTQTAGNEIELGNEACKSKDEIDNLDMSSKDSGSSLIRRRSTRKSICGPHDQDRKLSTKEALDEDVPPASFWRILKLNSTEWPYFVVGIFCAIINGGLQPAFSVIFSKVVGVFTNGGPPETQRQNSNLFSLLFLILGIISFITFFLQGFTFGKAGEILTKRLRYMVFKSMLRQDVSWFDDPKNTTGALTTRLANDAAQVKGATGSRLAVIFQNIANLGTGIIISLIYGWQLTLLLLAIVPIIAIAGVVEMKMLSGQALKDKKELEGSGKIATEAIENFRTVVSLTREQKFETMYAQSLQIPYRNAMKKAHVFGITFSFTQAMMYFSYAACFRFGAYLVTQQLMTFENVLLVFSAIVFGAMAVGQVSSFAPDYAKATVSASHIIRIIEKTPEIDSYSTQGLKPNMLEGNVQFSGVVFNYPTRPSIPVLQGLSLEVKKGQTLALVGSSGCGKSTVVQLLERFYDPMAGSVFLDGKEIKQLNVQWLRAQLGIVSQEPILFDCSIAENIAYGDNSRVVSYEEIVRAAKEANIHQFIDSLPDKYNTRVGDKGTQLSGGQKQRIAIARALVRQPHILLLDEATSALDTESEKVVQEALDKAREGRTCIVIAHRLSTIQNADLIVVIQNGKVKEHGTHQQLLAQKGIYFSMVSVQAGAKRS

On to `C[C@]12CCC(=O)C=C1CC[C@@H]1[C@@H]2[C@@H](O)C[C@@]2(C)[C@H]1CC[C@]2(O)C(=O)CO` [HYDROCORTISONE], for which the Activity result is “substrate [+]”.
